# Results: PMC6979384, “Characterization of the plant homeodomain (PHD) reader family for their histone tail interactions” (Epigenetics & Chromatin, 2020)
# What was measured:
# Experiment in all cases: Histone peptide microarray
# Assay type in all cases: binding, human
# PHRF1 (RP) = settings: GST-tagged PHRF1 (RP); sheet Array Heatmap; each array performed twice, total n = 4
# Outline: (§1)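 GST-tagged PHD readers, 0.5 μM, probed on a microarray of 293 synthetic histone peptides carrying single or combinatorial PTMs (optimized Petell protocol). Signals are averaged over 4 replicates and expressed as relative binding.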
# DPF2 (PPC2W2) = settings: GST-tagged DPF2 (PPC2W2 = Dual PHD + C2W2-type Zn-finger); sheet Array Heatmap; each array performed twice, total n = 4
# Outline: as §1
# KDM5B (1) = settings: GST-tagged KDM5B (1); sheet Array Heatmap; each array performed twice, total n = 4
# Outline: as §1
# PHF21A = settings: GST-tagged PHF21A; sheet Array Heatmap; each array performed twice, total n = 4
# Outline: as §1
# SP140L = settings: GST-tagged SP140L; sheet Array Heatmap; each array performed twice, total n = 4
# Outline: as §1
# PHF13 = settings: GST-tagged PHF13; sheet Array Heatmap; each array performed twice, total n = 4
# Outline: as §1
# PHF2 = settings: GST-tagged PHF2; sheet Array Heatmap; each array performed twice, total n = 4
# Outline: as §1
# CHD4 (PPCC) = settings: GST-tagged CHD4 (PPCC = Dual PHD + Dual Chromodomain); sheet Array Heatmap; each array performed twice, total n = 4
# Outline: as §1
# DIDO1 = settings: GST-tagged DIDO1; sheet Array Heatmap; each array performed twice, total n = 4
# Outline: as §1
# CHD5 (PCC) = settings: GST-tagged CHD5 (PCC = PHD + Dual Chromodomain); sheet Array Heatmap; each array performed twice, total n = 4
# Outline: as §1
# KDM4C (TTP) = settings: GST-tagged KDM4C (TTP = Tandem Tudor domain + PHD); sheet Array Heatmap; each array performed twice, total n = 4
# Outline: as §1
# PHF8 = settings: GST-tagged PHF8; sheet Array Heatmap; each array performed twice, total n = 4
# Outline: as §1
# KDM5A (1) = settings: GST-tagged KDM5A (1); sheet Array Heatmap; each array performed twice, total n = 4
# Outline: as §1
# PHF23 = settings: GST-tagged PHF23; sheet Array Heatmap; each array performed twice, total n = 4
# Outline: as §1
# ING3 = settings: GST-tagged ING3; sheet Array Heatmap; each array performed twice, total n = 4
# Outline: as §1
# MORC3 (CW) = settings: GST-tagged MORC3 (CW = CW-type Zn-finger); sheet Array Heatmap; each array performed twice, total n = 4
# Outline: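 GST-tagged PHD finger readers were expressed, purified and applied at 0.5 μM to a microarray of 293 synthetic histone peptides carrying single or combinatorial PTMs, using an optimized protocol. Binding signals are averages with standard deviation from 4 replicates.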
# CHD5 (PPCC) = settings: GST-tagged CHD5 (PPCC = Dual PHD + Dual Chromodomain); sheet Array Heatmap; each array performed twice, total n = 4
# Outline: as §1
# TRIM66 (PB) = settings: GST-tagged TRIM66 (PB = PHD + Bromodomain); sheet Array Heatmap; each array performed twice, total n = 4
# Outline: as §1
# BPTF (PB) = settings: GST-tagged BPTF (PB = PHD + Bromodomain); sheet Array Heatmap; each array performed twice, total n = 4
# Outline: as §1
# KDM5A (3) = settings: GST-tagged KDM5A (3); sheet Array Heatmap; each array performed twice, total n = 4
# Outline: as §1
# ING1 = settings: GST-tagged ING1; sheet Array Heatmap; each array performed twice, total n = 4
# Outline: as §1
# ING5 = settings: GST-tagged ING5; sheet Array Heatmap; each array performed twice, total n = 4
# Outline: as §1
# BAZ2B = settings: GST-tagged BAZ2B; sheet Array Heatmap; each array performed twice, total n = 4
# Outline: as §1
# KDM7A = settings: GST-tagged KDM7A; sheet Array Heatmap; each array performed twice, total n = 4
# Outline: as §1
# RAG2 = settings: GST-tagged RAG2; sheet Array Heatmap; each array performed twice, total n = 4
# Outline: as §1
# ING4 = settings: GST-tagged ING4; sheet Array Heatmap; each array performed twice, total n = 4
# Outline: as §1
# MLL5 = settings: GST-tagged MLL5; sheet Array Heatmap; each array performed twice, total n = 4
# Outline: as §1
# ING2 = settings: GST-tagged ING2; sheet Array Heatmap; each array performed twice, total n = 4
# Outline: as §1
# KDM5B (3) = settings: GST-tagged KDM5B (3); sheet Array Heatmap; each array performed twice, total n = 4
# Outline: as §1
# AIRE (PP) = settings: GST-tagged AIRE (PP); sheet Array Heatmap; each array performed twice, total n = 4
# Outline: as §1
# TAF3 = settings: GST-tagged TAF3; sheet Array Heatmap; each array performed twice, total n = 4
# Outline: as §1
substance,measurement,setting,value
H3R2me2a + T3p + K4me3: H3 1-20,Array Heatmap signal (histone peptide microarray),PHRF1 (RP),0.4955
same,Array Heatmap signal (histone peptide microarray),DPF2 (PPC2W2),0.687
same,Array Heatmap signal (histone peptide microarray),KDM5B (1),0.6049
same,Array Heatmap signal (histone peptide microarray),PHF21A,0.4298
same,Array Heatmap signal (histone peptide microarray),SP140L,0.3541
same,Array Heatmap signal (histone peptide microarray),PHF13,0.6175
same,Array Heatmap signal (histone peptide microarray),PHF2,0.6351
same,Array Heatmap signal (histone peptide microarray),CHD4 (PPCC),0.6044
same,Array Heatmap signal (histone peptide microarray),DIDO1,0.7496
same,Array Heatmap signal (histone peptide microarray),CHD5 (PCC),0.7634
same,Array Heatmap signal (histone peptide microarray),KDM4C (TTP),0.4695
same,Array Heatmap signal (histone peptide microarray),PHF8,0.3942
same,Array Heatmap signal (histone peptide microarray),KDM5A (1),0.4435
same,Array Heatmap signal (histone peptide microarray),PHF23,0.5238
same,Array Heatmap signal (histone peptide microarray),ING3,0.4974
same,Array Heatmap signal (histone peptide microarray),MORC3 (CW),0.479
same,Array Heatmap signal (histone peptide microarray),CHD5 (PPCC),0.5403
same,Array Heatmap signal (histone peptide microarray),TRIM66 (PB),0.6445
same,Array Heatmap signal (histone peptide microarray),BPTF (PB),0.3598
same,Array Heatmap signal (histone peptide microarray),KDM5A (3),0.5129
same,Array Heatmap signal (histone peptide microarray),ING1,0.5674
same,Array Heatmap signal (histone peptide microarray),ING5,0.3525
same,Array Heatmap signal (histone peptide microarray),BAZ2B,0.443
same,Array Heatmap signal (histone peptide microarray),KDM7A,0.3305
same,Array Heatmap signal (histone peptide microarray),RAG2,0.2527
same,Array Heatmap signal (histone peptide microarray),ING4,0.4572
same,Array Heatmap signal (histone peptide microarray),MLL5,0.5468
same,Array Heatmap signal (histone peptide microarray),ING2,0.5913
same,Array Heatmap signal (histone peptide microarray),KDM5B (3),0.5351
same,Array Heatmap signal (histone peptide microarray),AIRE (PP),0.4234
same,Array Heatmap signal (histone peptide microarray),TAF3,0.272
